According to paper PMC4747952, “Development of TASP0410457 (TASP457), a novel dihydroquinolinone derivative as a PET radioligand for central histamine H3 receptors” (EJNMMI Research, 2016):

Legend:
monkey H3Rs = target: T1, monkey H3Rs (Macaca mulatta, UniProt Q865E1); assay: In vitro binding to H3Rs, monkey frontal cortex membranes, [^3H]N-α-methylhistamine; details: 1 nM [^3H]N-α-methylhistamine, geometric mean, n = 3, read-out: Affinity for H3Rs Monkey, IC50
T1 construct: Rat cerebral cortex and monkey frontal cortex were dissected; from tissue; host or cells: monkey frontal cortex membranes
T1 sequence (Q865E1 1-445): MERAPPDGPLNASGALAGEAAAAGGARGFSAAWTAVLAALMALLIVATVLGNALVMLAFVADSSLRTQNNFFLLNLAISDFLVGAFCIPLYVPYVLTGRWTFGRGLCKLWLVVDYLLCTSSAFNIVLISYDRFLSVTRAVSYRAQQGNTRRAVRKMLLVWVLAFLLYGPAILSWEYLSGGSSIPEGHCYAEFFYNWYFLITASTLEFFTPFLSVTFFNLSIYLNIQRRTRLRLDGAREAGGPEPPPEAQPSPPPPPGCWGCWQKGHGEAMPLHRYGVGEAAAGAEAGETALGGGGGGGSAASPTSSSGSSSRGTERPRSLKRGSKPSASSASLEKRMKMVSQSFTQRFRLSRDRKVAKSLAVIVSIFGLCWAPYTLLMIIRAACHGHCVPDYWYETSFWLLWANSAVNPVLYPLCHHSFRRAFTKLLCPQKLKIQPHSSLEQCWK
Protocol: Rat cerebral cortex and monkey frontal cortex were dissected, homogenized with 50 mM Tris buffer (pH 7.4) containing 5 mM EDTA and Protease Inhibitor Cocktail Tablets (Roche Diagnostics, Indianapolis, IN) and centrifuged at 48,000×g for 15 min at 4 °C. The pellets were then suspended in binding buffer (50 mM Tris containing 5 mM EDTA, pH 7.4) and stored at −80 °C as membrane preparations.
The membrane preparations were thawed and incubated in the binding buffer containing 0.1 % bovine serum albumin, 1 nM [^3H]N-α-methylhistamine (PerkinElmer, Waltham, MA) with various concentrations of a dihydroquinolinone derivative (i.e., test compound) at 25 °C for 1 h. The reaction was terminated by rapid filtration through 96-well GF/C filter plates (PerkinElmer) presoaked with 0.5 % polyethyleneimine (Wako, Osaka, Japan). After washes with ice-cold binding buffer, the plates were dried and filled with Microscint-o (PerkinElmer). The radioactivity retained on the filters was counted using a TopCount NXT (PerkinElmer). Total and nonspecific radioligand binding was determined by reaction without and with 10 μM thioperamide and clobenpropit, respectively. The specific radioligand binding was then calculated by subtracting the nonspecific binding from the total binding. The IC50 value for inhibition of the radioligand binding by the test compound was determined using a nonlinear fit of the concentration-response curve for each test compound using SAS 9.2 (SAS Institute Inc., Cary, NC). Data were expressed as the geometric means of IC50 values from three independent experiments run in duplicate.

[1] = Radiochemical stability in the final formulation; assay type: physicochemical; details: at 1 h after the end of radiosynthesis
Protocol: [^11C]TASP0390136, [^11C]TASP0410457, and [^11C]TASP0434988 were synthesized as shown in Fig. 1a–c (detailed procedures are described in Additional file 1: Supplemental methods) using a homemade automated synthesis system. The radiochemical purities and specific activities of the radioligands, which were analyzed as described in Additional file 1: Supplemental Methods, along with their radiochemical yields and average synthesis times, are summarized in Table 1. Analytical HPLC chromatogram of each radioligand is shown in Additional file 2-4: Figures S1-S3. The radiochemical stabilities of [^11C]TASP0410457 and [^11C]TASP0434988 in the final formulation were >99 % at 1 h and 40 min, respectively, after the end of radiosynthesis.

[2] = design: method as in earlier work; details: humans; at 30 min; ref Kimura et al., manuscript submitted to Eur J Nucl Med Mol Imaging; cited from earlier work
central H3Rs = assay: Receptor occupancy assay, [^11C]TASP0410457-PET, Lassen's plot; assay type: in vivo, monkey; details: monkey
Protocol: Occupancy of central H3Rs by ciproxifan, a selective antagonist/inverse agonist, was quantified by [^11C]TASP0410457-PET scans of an anesthetized monkey with arterial blood sampling. […] Receptor occupancy of ciproxifan was determined using Lassen’s plot without any reference regions using the following equation: VT^Baseline−VT^Ciproxifan=OccVT^Baseline−VND where VT^Baseline and VT^Ciproxifan are the regional VT values at baseline and in the ciproxifan challenge, respectively, VND is the non-displaceable distribution volume, and Occ is the occupancy.

| IC50 (monkey H3Rs) [nM] | radiochemical stability in the final formulation [1] [%] | Non-displaceable distribution volume (central H3Rs; Lassen's plot) [mL/cm^3] | Compound | share of total plasma radioactivity arising from the metabolite [2] [%] | specific radioligand binding as share of the radioactivity in the striatum (central H3Rs) |
| --- | --- | --- | --- | --- | --- |
| 1.06 | – | – | COc1ccc(N2C(=O)CCc3cc(OCCCN4CCC[C@H]4C)ccc32)cc1 [TASP0390136, 1-(4-methoxyphenyl)-6-{3-[(2R)-2-methylpyrrolidin-1-yl]propoxy}-3,4-dihydroquinolin-2(1H)-one] | – | – |
| 1.8 | – | – | COc1ccc(N2C(=O)CCc3cc(OC4CCN(C5CCC5)CC4)ccc32)cn1 [TASP0410457, 6-[(1-Cyclobutylpiperidin-4-yl)oxy]-1-(6-methoxypyridin-3-yl)-3,4-dihydroquinolin-2(1H)-one] | – | – |
| 0.565 | – | – | COc1ccc(N2C(=O)CCc3cc(OC4CCN(C5CCC5)CC4)ccc32)cc1 [TASP0434988, 6-[(1-cyclobutylpiperidin-4-yl)oxy]-1-(4-methoxyphenyl)-3,4-dihydroquinolin-2(1H)-one] | – | – |
| – | > 99 | 4.0 | [11CH3]Oc1ccc(N2C(=O)CCc3cc(OC4CCN(C5CCC5)CC4)ccc32)cn1 [[^11C]TASP0410457] | 13 | more than 80% |
